From patent US11253593B2, “Granulated anthelmintic preparations and delivery systems” (Argenta Innovation Limited, priority 2009, dated 2022)
Read-outs that look alike come from different tables or passages of the source.

How the values were obtained:
[1] = Stability trial post mix of reconstituted abamectin liquid concentrate; type: physicochemical
Procedure: The stability of the reconstituted abamectin was investigated after storage at 20-25° C. for 4 days.

in vivo = test: in vivo
Procedure: A cross-over study was performed to determine the blood plasma concentrations of abamectin, oxfendazole and levamisole following oral treatment with reconstituted granule product containing these three anthelmintics.
Eight female romney sheep of similar age and body weight were used. The criteria for selection was to include animals that had not been dosed with a persistent anthelmintic formulation within 6 months of selection for the trial. Persistent anthelmintics include slow release capsules (e.g. Bionic), injectable or oral forms of moxidectin and closantel. Sheep were acclimated to the study site for 14 days before treatment.
Each sheep was randomly assigned to the treatment group and received one treatment and then the alternate treatment 21 days later.
The study procedures were as follows: • sheep were weighed using calibrated scales on Day −1 for weight ranking and allocation to treatment groups. […] Granules were weighed and added with the calculated volume of water to a 2 litre schott bottle and inverted a number of times until the granules were wetted and fully dispersed. On the morning of treatment the schott bottle was again gently inverted 3 or 4 times to ensure a homogeneous mix and approximately 100 mL was decanted from which the syringe was filled for dosing. • Treatments were administered on Day 0 and Day 21 at a dose volume of 1 ml/5 kg. Dosing was done using a 12 mL graduated syringe. Dose volume and time of administration was recorded and checked for each sheep. • Blood samples were collected before treatment, and after treatment at 0.5, 1, 2, 6, 8, 12, 15, 24 and 36 hrs.
Oxfendazole plasma levels are presented as two separate plasma metabolites: oxfendazole and fenbendazole, and the total of these two expressed as “total-oxfendazole”. All plasma metabolite units are presented as mg/kg

[2] = In-use stability, physico-chemical, of reconstituted dual active drug product; conditions: reconstituted drug product of 4.1; storage at 30 and 40° C. for 1 month
Procedure: The stability of reconstituted drug product was investigated after storage at 30 and 40° C. for 1 month.

[3] = In-use suspendability of reconstituted granule (oxfendazole as marker); type: physicochemical; conditions: reconstituted granule of 4.1 in water 1.1 kg/5 L
Procedure: The concentration of the reconstituted granule in water was 1.1 kg/5 L. Oxfendazole was chosen as a marker compound for drug suspension stability.
(Levamisole Fully Soluble)
2 h: At the top was 96 mg/g and at the bottom was 105.2 mg/g
4 h: At the top was 98 mg/g and at the bottom was 99 mg/g
4 days: At the top was 95.7 mg/g and at the bottom was 98 mg/g

[4] = Chemical and physical stability of abamectin in reconstituted triple active formulation; type: physicochemical; conditions: reconstituted with water, triple active formulation 6.1; storage at 30 and 40° C. for 1 month
Procedure: When reconstituted with water, the sstability of abamectin in the reconstituted triple active formulation was investigated after storage at 30 and 40° C. for 1 month.

[5] = female, Romney, sheep, in vivo, po
[6] = oral 1 ml/5 kg, pooled mean of 8 sheep, oxfendazole comparison
[7] = oral 1 ml/5 kg, pooled mean of 8 sheep, total oxfendazole comparison

OCc1ccccc1 [benzyl alcohol]
Degradation after reconstitution [1]: some degradation

COC(=O)Nc1nc2ccc(Sc3ccccc3)cc2[nH]1 [fenbendazole]
Tmax, plasma fenbendazole (metabolite) (in vivo; [5]): 12 h
Cmax, plasma fenbendazole (metabolite) (in vivo; sheep, in vivo, po): 0.209 mg/kg

c1ccc([C@H]2CN3CCSC3=N2)cc1 [levamisole]
Chemical degradation [2]: less than 2%
Tmax (in vivo; [5]): 1 h
Cmax, plasma levamisole (in vivo; sheep, in vivo, po): 1.445 mg/kg

COC(=O)Nc1nc2cc([S+]([O-])c3ccccc3)ccc2[nH]1 (stereo not shown) [oxfendazole]
Oxfendazole concentration at the bottom ([3]; 2 h): 105.2 mg/g
Oxfendazole concentration at the top ([3]; 2 h): 96 mg/g
Oxfendazole concentration at the bottom ([3]; 4 h): 99 mg/g
Oxfendazole concentration at the top ([3]; 4 h): 98 mg/g
Oxfendazole concentration at the bottom ([3]; 4 days): 98 mg/g
Oxfendazole concentration at the top ([3]; 4 days): 95.7 mg/g
Oxfendazole concentration, initial ([3]; initial): 100 mg/g
Chemical degradation [2]: no chemical degradation
Cmax, plasma oxfendazole (in vivo; [6]): 0.792 mg/kg
Tmax, plasma oxfendazole (in vivo; [6]): 15 h
Cmax, plasma total oxfendazole (oxfendazole + fenbendazole) (in vivo; [7]): 0.984 mg/kg
Tmax, plasma total oxfendazole (oxfendazole + fenbendazole) (in vivo; [7]): 12 h

abamectin
Degradation after reconstitution ([1]; reconstituted liquid concentrate of Example 9, storage at 20-25° C. for 4 days): no degradation
Degradation of abamectin [4]: less than 2%
Tmax, plasma abamectin (in vivo; oral 1 ml/5 kg, pooled mean of 8 sheep, abamectin comparison): 24 h
Cmax, plasma abamectin (in vivo; oral 1 ml/5 kg, pooled mean of 8 sheep, both cross-over phases, abamectin comparison): 0.017 mg/kg
